# Test results taken from patent US20250235148A1, “IBS RELATED TESTING AND TREATMENT” (IBS-80, LLC, priority 2021, published 2025).
# Where two headings read alike, the source gives them in different places.
# Tests used:
# skin of each patient [1] = test: skin patch testing with the first 28 common test materials (Example 2); conditions: of 15 symptomatic patients (IBS or IBS-like symptoms)
# skin of each patient [2] = conditions: human, in vivo, 48 h
SMILES,patients with a positive patch test (skin of each patient [1]),patients with a positive patch test (skin of each patient [2])
O=C(OOC(=O)c1ccccc1)c1ccccc1 [benzoyl peroxide],1,–
C=C(C)[C@H]1CC=C(C)CC1 [dipentene],1,–
CCCCCCCCCCCCOC(=O)c1cc(O)c(O)c(O)c1 [dodecyl gallate],–,1
